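A five-concentration, 48-hour dose response in 96-well plates underlies each endpoint, interpolated linearly between surrounding concentrations. Abbreviation: GI50, concentration required for 50% inhibition of growth. TGI: concentration producing complete growth inhibition.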
Columns and labels:
Assay in all cases: NCI tumour cell line growth inhibition, 48 h
KM12 colon = system: KM12 colon
HOP-92 NSCLC = system: HOP-92 NSCLC
NCI-H226 lung = system: NCI-H226 lung
UACC-257 melanoma = system: UACC-257 melanoma
MDA-MB-231 breast = system: MDA-MB-231 breast
T-47D breast = system: T-47D breast
M14 melanoma = system: M14 melanoma
BT-549 breast = system: BT-549 breast
EKVX NSCLC = system: EKVX NSCLC
MALME-3M melanoma = system: MALME-3M melanoma

| Structure (SMILES) | TGI (KM12 colon) | TGI (HOP-92 NSCLC) | TGI (NCI-H226 lung) | TGI (UACC-257 melanoma) | TGI (MDA-MB-231 breast) | TGI (T-47D breast) | TGI (M14 melanoma) | TGI (BT-549 breast) | TGI (EKVX NSCLC) | TGI (MALME-3M melanoma) | GI50 (KM12 colon) | GI50 (HOP-92 NSCLC) | GI50 (NCI-H226 lung) | GI50 (MDA-MB-231 breast) | GI50 (T-47D breast) | GI50 (M14 melanoma) | GI50 (BT-549 breast) | GI50 (EKVX NSCLC) | GI50 (MALME-3M melanoma) | GI50 (UACC-257 melanoma) |
| --- | --- | --- | --- | --- | --- | --- | --- | --- | --- | --- | --- | --- | --- | --- | --- | --- | --- | --- | --- | --- |
| N#CC(C(=O)O)C(c1c(Cl)cccc1Cl)C(C#N)C(=O)O (stereo unspecified) | > 100 µM | > 100 µM | > 100 µM | > 100 µM | > 100 µM | > 100 µM | > 100 µM | > 100 µM | > 100 µM | > 100 µM |  |  |  |  |  |  |  |  |  |  |
| S=C1SCN(C2CCCCCCCCCCC2)CN1C1CCCCCCCCCCC1 | > 100 µM | > 100 µM | > 100 µM | > 100 µM | > 100 µM | > 100 µM | > 100 µM | > 100 µM | > 100 µM | > 100 µM |  |  |  |  |  |  |  |  |  |  |
| C=C1C(=O)O[C@H]2[C@H]1CC/C(Cn1cc(-c3ccsc3)nn1)=C\CC[C@@]1(C)O[C@@H]21 | 19.6 µM | 3.62 µM | 5.51 µM |  | 3.61 µM | 5.52 µM | 5.02 µM | 5.21 µM | 7.76 µM | 3.34 µM | 6.45 µM | 1.66 µM | 2.09 µM | 1.75 µM | 2.03 µM | 1.93 µM | 1.8 µM | 2.33 µM | 1.61 µM |  |
| CC(=O)OC1(C#N)CC2OC1C1N=NN(C(=O)OC(C)(C)C)C21 (stereo unspecified) | > 100 µM | > 31.6 µM | > 100 µM | > 31.6 µM |  |  | 51.2 µM |  | > 100 µM | > 68.2 µM |  |  |  |  |  |  |  |  |  |  |
| COc1cccc(NC(=O)c2ccc(NC3=C(Cl)C(=O)N(Cc4ccccc4)C3=O)cc2)c1 | 40.3 µM |  | 28.8 µM | 38.5 µM | 36.1 µM | > 100 µM | 31.7 µM | 33.8 µM | 49.4 µM | 42.1 µM | 16.9 µM |  | 14.8 µM | 16.7 µM | 21.5 µM | 17.3 µM | 13.8 µM | 24.4 µM | 16 µM | 16.2 µM |
| COc1c(N2CCN(CN3C(=O)C(=O)c4ccccc43)C(C)C2)c(F)cc2c(=O)c(C(=O)O)cn(C3CC3)c12 (stereo unspecified) | > 100 µM |  | > 100 µM | > 100 µM | > 100 µM |  | > 100 µM | > 100 µM | > 100 µM |  | 76.2 µM |  | > 100 µM | 53.5 µM |  | > 100 µM | > 100 µM | > 100 µM |  | > 100 µM |
| Cc1ccc(-c2cc(=O)c3cc(C)c(C)c(C(=O)O)c3o2)cc1[N+](=O)[O-] | > 100 µM |  | > 100 µM | > 100 µM |  |  | > 100 µM |  | > 100 µM | > 100 µM |  |  |  |  |  |  |  |  |  |  |
| COC(=O)c1ccc(/C=C/S(=O)(=O)c2ccccc2)cc1 | > 100 µM | > 100 µM | > 100 µM | > 100 µM |  |  | > 100 µM |  | > 100 µM | > 100 µM |  |  |  |  |  |  |  |  |  |  |
| CCCCCN(CCCCC)C(=O)[C@H](CCC(=O)OCc1ccccc1)NC(=O)c1cc2ccccc2[nH]1 | > 100 µM | > 100 µM | > 100 µM | > 100 µM |  |  | > 100 µM |  | > 100 µM | > 100 µM |  |  |  |  |  |  |  |  |  |  |
| CC(CCC(=O)O)c1ccc(Br)cc1 (stereo unspecified) | > 100 µM |  | > 100 µM | > 100 µM |  |  | > 100 µM |  | > 100 µM | > 100 µM |  |  |  |  |  |  |  |  |  |  |
| N.N.NCCCCCN.O=C([O-])CC(=O)[O-].O=C([O-])CC(=O)[O-].[Pt+4].[Pt+4] | > 100 µM | > 100 µM | > 100 µM | > 100 µM |  |  | > 100 µM |  | > 100 µM | > 100 µM | > 100 µM | > 100 µM | > 100 µM |  |  | > 100 µM |  | > 100 µM | > 100 µM | > 100 µM |
| N/C(=N\N=C\c1ccc(O)c(O)c1)NO | > 100 µM | > 100 µM | > 100 µM | > 100 µM |  |  | > 100 µM |  | > 100 µM | > 100 µM |  |  |  |  |  |  |  |  |  |  |
| CC1(C)Oc2ccccc2[N+]([O-])=C1c1ccccc1 |  | > 100 µM |  | > 100 µM |  |  | > 100 µM |  |  | > 100 µM |  |  |  |  |  |  |  |  |  |  |
| CCOc1ccc(N=Cc2ccc3ccccc3n2)cc1 | > 100 µM | > 100 µM | > 100 µM | > 100 µM |  |  | > 100 µM |  | > 100 µM | > 100 µM |  |  |  |  |  |  |  |  |  |  |
| Fc1ccc2c(c1)cc1ccc3cccc4ccc2c1c34 | > 100 µM | > 100 µM | > 100 µM | > 100 µM |  |  | > 100 µM |  | > 100 µM | > 100 µM |  |  |  |  |  |  |  |  |  |  |
| CCOC(=O)NC(=O)c1cn(C2OC(COC(=O)CCCCCCCCC(=O)OCC3OC(n4cc(C(=O)NC(=O)OCC)c(=O)[nH]c4=O)C4OC(C)(C)OC34)C3OC(C)(C)OC32)c(=O)[nH]c1=O (stereo unspecified) | > 100 µM | > 100 µM | > 100 µM | > 100 µM |  |  | > 100 µM |  | > 100 µM | > 100 µM |  |  |  |  |  |  |  |  |  |  |
| COc1ccc(/C=C2\CCc3ccccc3C2=O)cc1OC | 39.5 µM |  |  | 43.1 µM |  |  | 50 µM |  | > 100 µM | > 100 µM |  |  |  |  |  |  |  |  |  |  |
| COC(=O)[C@H](Cc1cn(C)cn1)NC(=O)[C@@H](NC(=O)Nc1cc(C(F)(F)F)cc(C(F)(F)F)c1)C(C)(C)C | > 10 µM |  | > 10 µM | > 10 µM | > 10 µM | > 10 µM | > 10 µM | > 10 µM |  | > 10 µM | > 10 µM |  | > 10 µM | > 10 µM | > 10 µM | > 10 µM | > 10 µM |  | > 10 µM | > 10 µM |
| Nc1nc(CC2(O)CCCCC2)cc(-c2ccccc2)n1 | > 57 µM | > 71.9 µM | > 61.9 µM | > 78.1 µM |  |  | > 31.6 µM |  | > 100 µM |  |  |  |  |  |  |  |  |  |  |  |
| O=C(COC(=O)c1cccc2c(=O)c3ccccc3[nH]c12)Nc1ccc(S(=O)(=O)Nc2ncccn2)cc1 | > 100 µM | 51 µM | > 100 µM | > 100 µM |  |  | > 100 µM |  | > 100 µM | > 100 µM |  |  |  |  |  |  |  |  |  |  |
| CCC(C)(C)NS(=O)(=O)c1ccccc1 | > 100 µM |  |  | > 100 µM |  |  | > 100 µM |  | > 100 µM | > 100 µM |  |  |  |  |  |  |  |  |  |  |
| CC(=Nc1ccccc1)C1=C(O)C(Cc2ccc(F)cc2)NC1=O (stereo unspecified) | > 100 µM | > 100 µM | > 100 µM | > 100 µM | > 100 µM | > 100 µM | > 100 µM | > 100 µM |  | > 100 µM | 0.4 µM | 0.327 µM | 39.5 µM | 1.7 µM | 0.793 µM | 0.435 µM | 0.879 µM |  | 0.661 µM | > 100 µM |

Source: PubChem BioAssay (NCI)
